This is an account of results in patent US5843889A, “Glycopeptide antibiotic derivatives” (Eli Lilly and Company, priority 1997, dated 1998).

Converted amounts (≈) assume the structure as drawn.

Assay type in all cases: cell-based
Experiment [1] relates to Leuconostoc mesenteroides. Briefly: MIC, agar dilution on brain-heart infusion agar. The following applies: Leuconostoc mesenteroides (mean of 4). A general note: Agar dilution tests growth on a series of plates holding different concentrations.
In experiment [2] the test system is Entercoccus faecalis 2041. As to the kind of experiment: MIC, standard broth micro-dilution assay. As for the experimental part: (§1) The formula I compounds have in vitro and in vivo activity against Gram-positive pathogenic bacteria. The MIC's were determined using a standard broth micro-dilution assay.
On the technique in general: In broth dilution the organism is exposed to a series of concentrations in liquid medium.

The subject of experiment [3] is Entercoccus gallinarum 245. Briefly: MIC, standard broth micro-dilution assay. As for the experimental part: as §1
In another experiment the test system is Entercoccus faecalis 276. As to the kind of experiment: MIC, standard broth micro-dilution assay. The protocol:
as §1

The subject of another experiment is Pediococcus pentosaceus. As to the kind of experiment: MIC, agar dilution on brain-heart infusion agar. The conditions noted are these: Pediococcus pentosaceus (mean of 2).
The test system of a further experiment is Pedicoccus acidilacti. As to the kind of experiment: MIC, agar dilution on brain-heart infusion agar. The following applies: Pedioccccus acidilacti (mean of 10).
A further experiment relates to Lactobacillus confusus. Briefly: MIC, agar dilution on brain-heart infusion agar.
The next experiment concerns Leuconostoc lactis. As to the kind of experiment: MIC, agar dilution on brain-heart infusion agar. The following applies: Leuconostoc lactis (mean of 2).
For experiment [4], the system named is Staphylococcus aureus S13E. The protocol:
(§2) The MIC's were determined using a standard broth micro-dilution assay.

Experiment [5] concerns Staphylococcus aureus SA1199B. As for the experimental part: as §2
Experiment [6] concerns Staphylococcus aureus 491. Briefly: MIC, standard broth micro-dilution assay. As for the experimental part: as §2
The test system of experiment [7] is Staphylococcus aureus SA1199. As to the kind of experiment: MIC, standard broth micro-dilution assay. As for the experimental part: as §2

Take `CNC(CC(C)C)C(=O)NC1C(=O)NC(CC(N)=O)C(=O)NC2C(=O)NC3C(=O)NC(C(=O)NC(C(=O)O)c4cc(O)cc(O)c4-c4cc3ccc4O)C(OC3CC(C)(N)C(O)C(C)O3)c3ccc(c(Cl)c3)Oc3cc2cc(c3OC2OC(CO)C(O)C(O)C2OC2CC(C)(NCc3cc(OCc4ccccc4)ccc3OC)C(O)C(C)O2)Oc2ccc(cc2Cl)C1O` (stereo not shown) [Compound 51, 3-benzyloxy-6-methoxy benzyl]: the MIC was 76 µg/mL (≈ 41.8 µM) in experiment [1]; at most 0.06 µg/mL in experiment [2]; 1 µg/mL (≈ 0.55 µM) in experiment [3]; at most 0.06 µg/mL against Entercoccus faecalis 276; 91 µg/mL (≈ 50 µM) in the experiment on Pediococcus pentosaceus; 87 µg/mL (≈ 47.8 µM) in the experiment with Pedicoccus acidilacti.
Turning to `CNC(CC(C)C)C(=O)NC1C(=O)NC(CC(N)=O)C(=O)NC2C(=O)NC3C(=O)NC(C(=O)NC(C(=O)O)c4cc(O)cc(O)c4-c4cc3ccc4O)C(OC3CC(C)(N)C(O)C(C)O3)c3ccc(c(Cl)c3)Oc3cc2cc(c3OC2OC(CO)C(O)C(O)C2OC2CC(C)(NCc3cccc4c3oc3ccccc34)C(O)C(C)O2)Oc2ccc(cc2Cl)C1O` (stereo not shown) [Compound 39, 4-[1-oxa]fluorenylmethyl], the MIC was 32 µg/mL (≈ 18.1 µM) in experiment [1]; 32 µg/mL (≈ 18.1 µM) against Lactobacillus confusus; at most 0.06 µg/mL in [2]; at most 0.06 µg/mL in experiment [3]; at most 0.06 µg/mL against Entercoccus faecalis 276; 32 µg/mL (≈ 18.1 µM) against Leuconostoc lactis. Besides, the minimal inhibitory concentration (MIC) was determined as 32 µg/mL (≈ 18.1 µM) with Pediococcus pentosaceus and 26 µg/mL (≈ 14.7 µM) in the experiment on Pedicoccus acidilacti.
As for “4-[2-chloro-6-fluorobenzyloxy]benzyl [Compound 80]”, the MIC in [2] is at most 0.06 µg/mL; in experiment [3] it was at most 0.06 µg/mL; against Entercoccus faecalis 276, at most 0.06 µg/mL; in experiment [4] it was 1 µg/mL; in experiment [5], 1 µg/mL.
Take “2-[4-chlorophenyl]-6-benzoxazolemethyl [Compound 116]”: the MIC is at most 0.06 µg/mL in [2]; 4 µg/mL in experiment [3]; 0.25 µg/mL in the experiment with Entercoccus faecalis 276; 1 µg/mL in experiment [4]; 0.5 µg/mL in experiment [5].
For `C=CCCCCCCCCCNC1(C)CC(OC2C(Oc3c4cc5cc3Oc3ccc(cc3Cl)C(OC3CC(C)(N)C(O)C(C)O3)C3NC(=O)C(NC(=O)C5NC(=O)C(CC(N)=O)NC(=O)C(NC(=O)C(CC(C)C)NC)C(O)c5ccc(c(Cl)c5)O4)c4ccc(O)c(c4)-c4c(O)cc(O)cc4C(C(=O)O)NC3=O)OC(CO)C(O)C2O)OC(C)C1O` (stereo not shown) [Compound 204, 10-undecenyl], the MIC (in experiment [2]; against Entercoccus faecalis 276; in experiment [6]) was at most 0.06 µg/mL each time.
For the compound `CCOc1ccc2ccccc2c1CNC1(C)CC(OC2C(Oc3c4cc5cc3Oc3ccc(cc3Cl)C(OC3CC(C)(N)C(O)C(C)O3)C3NC(=O)C(NC(=O)C5NC(=O)C(CC(N)=O)NC(=O)C(NC(=O)C(CC(C)C)NC)C(O)c5ccc(c(Cl)c5)O4)c4ccc(O)c(c4)-c4c(O)cc(O)cc4C(C(=O)O)NC3=O)OC(CO)C(O)C2O)OC(C)C1O` (stereo not shown) [Compound 60, 2-ethoxy-1-naphthylmethyl], the MIC in experiment [3] was determined as 16 µg/mL (≈ 9.01 µM); against Entercoccus faecalis 276 it was 0.5 µg/mL (≈ 0.281 µM); in experiment [7] it was 0.5 µg/mL (≈ 0.281 µM).
With `CNC(CC(C)C)C(=O)NC1C(=O)NC(CC(N)=O)C(=O)NC2C(=O)NC3C(=O)NC(C(=O)NC(C(=O)O)c4cc(O)cc(O)c4-c4cc3ccc4O)C(OC3CC(C)(N)C(O)C(C)O3)c3ccc(c(Cl)c3)Oc3cc2cc(c3OC2OC(CO)C(O)C(O)C2OC2CC(C)(NCc3cccc4c3OCO4)C(O)C(C)O2)Oc2ccc(cc2Cl)C1O` (stereo not shown) [Compound 58, 2,3-methylenedioxybenzyl], the MIC in experiment [2] stood at 0.5 µg/mL (≈ 0.29 µM); in [3] it was 0.5 µg/mL (≈ 0.29 µM); against Entercoccus faecalis 276, 0.5 µg/mL (≈ 0.29 µM); in experiment [7] it was 1 µg/mL (≈ 0.579 µM); in the experiment on Pedicoccus acidilacti, 55 µg/mL (≈ 31.9 µM).
On to `CNC(CC(C)C)C(=O)NC1C(=O)NC(CC(N)=O)C(=O)NC2C(=O)NC3C(=O)NC(C(=O)NC(C(=O)O)c4cc(O)cc(O)c4-c4cc3ccc4O)C(OC3CC(C)(N)C(O)C(C)O3)c3ccc(c(Cl)c3)Oc3cc2cc(c3OC2OC(CO)C(O)C(O)C2OC2CC(C)(NCc3ccc4c(c3)OCCO4)C(O)C(C)O2)Oc2ccc(cc2Cl)C1O` (stereo not shown) [Compound 56], for which the MIC in [2] is 0.25 µg/mL (≈ 0.144 µM); in experiment [3], 16 µg/mL (≈ 9.19 µM); in the experiment with Entercoccus faecalis 276, 0.25 µg/mL (≈ 0.144 µM); in experiment [7] it was 0.5 µg/mL (≈ 0.287 µM).
In the case of `CNC(CC(C)C)C(=O)NC1C(=O)NC(CC(N)=O)C(=O)NC2C(=O)NC3C(=O)NC(C(=O)NC(C(=O)O)c4cc(O)cc(O)c4-c4cc3ccc4O)C(OC3CC(C)(N)C(O)C(C)O3)c3ccc(c(Cl)c3)Oc3cc2cc(c3OC2OC(CO)C(O)C(O)C2OC2CC(C)(NCc3ccc4ccccc4c3)C(O)C(C)O2)Oc2ccc(cc2Cl)C1O` (stereo not shown) [Compound 1, 2-naphthylmethyl], the MIC in experiment [3] was 4 µg/mL (≈ 2.31 µM); against Entercoccus faecalis 276, at most 0.06 µg/mL; against Leuconostoc lactis, 23 µg/mL (≈ 13.3 µM); in the experiment with Pediococcus pentosaceus, 23 µg/mL (≈ 13.3 µM); with Pedicoccus acidilacti, 18 µg/mL (≈ 10.4 µM).
In the case of `CNC(CC(C)C)C(=O)NC1C(=O)NC(CC(N)=O)C(=O)NC2C(=O)NC3C(=O)NC(C(=O)NC(C(=O)O)c4cc(O)cc(O)c4-c4cc3ccc4O)C(OC3CC(C)(N)C(O)C(C)O3)c3ccc(c(Cl)c3)Oc3cc2cc(c3OC2OC(CO)C(O)C(O)C2OC2CC(C)(NCCCCCCCCOc3ccc(Oc4ccccc4)cc3)C(O)C(C)O2)Oc2ccc(cc2Cl)C1O` (stereo not shown) [Compound 202], the MIC in experiment [2] amounted to 1 µg/mL (≈ 0.529 µM); in [3] it was 8 µg/mL (≈ 4.24 µM); in the experiment on Entercoccus faecalis 276 it was 4 µg/mL (≈ 2.12 µM); in experiment [6], 8 µg/mL (≈ 4.24 µM).
“4-[2-[2-thiopropyl]ethoxy]benzyl [Compound 134]”: the MIC came to 0.25 µg/mL in experiment [2]; 4 µg/mL in experiment [3]; 1 µg/mL against Entercoccus faecalis 276; 2 µg/mL in experiment [4]; 2 µg/mL in experiment [5].
With `CNC(CC(C)C)C(=O)NC1C(=O)NC(CC(N)=O)C(=O)NC2C(=O)NC3C(=O)NC(C(=O)NC(C(=O)O)c4cc(O)cc(O)c4-c4cc3ccc4O)C(OC3CC(C)(N)C(O)C(C)O3)c3ccc(c(Cl)c3)Oc3cc2cc(c3OC2OC(CO)C(O)C(O)C2OC2CC(C)(NCc3ccc(OCc4ccccc4)c(OC)c3)C(O)C(C)O2)Oc2ccc(cc2Cl)C1O` (stereo not shown) [Compound 52, 4-benzyloxy-3-methoxybenzyl], the MIC worked out at 76 µg/mL (≈ 41.8 µM) in [1], 0.5 µg/mL (≈ 0.275 µM) in [2], 1 µg/mL (≈ 0.55 µM) in experiment [3] and 55 µg/mL (≈ 30.2 µM) in the experiment with Pedicoccus acidilacti.
With `CNC(CC(C)C)C(=O)NC1C(=O)NC(CC(N)=O)C(=O)NC2C(=O)NC3C(=O)NC(C(=O)NC(C(=O)O)c4cc(O)cc(O)c4-c4cc3ccc4O)C(OC3CC(C)(N)C(O)C(C)O3)c3ccc(c(Cl)c3)Oc3cc2cc(c3OC2OC(CO)C(O)C(O)C2OC2CC(C)(NCc3ccc(Oc4ccc([N+](=O)[O-])cc4)cc3)C(O)C(C)O2)Oc2ccc(cc2Cl)C1O` (stereo not shown) [Compound 57, 4-[4-nitrophenoxy]benzyl], the MIC in experiment [2] is at most 0.06 µg/mL; in [3], 2 µg/mL (≈ 1.1 µM); against Entercoccus faecalis 276, 0.5 µg/mL (≈ 0.275 µM); in experiment [7], 1 µg/mL (≈ 0.55 µM).
With `CNC(CC(C)C)C(=O)NC1C(=O)NC(CC(N)=O)C(=O)NC2C(=O)NC3C(=O)NC(C(=O)NC(C(=O)O)c4cc(O)cc(O)c4-c4cc3ccc4O)C(OC3CC(C)(N)C(O)C(C)O3)c3ccc(c(Cl)c3)Oc3cc2cc(c3OC2OC(CO)C(O)C(O)C2OC2CC(C)(NCCc3ccccc3OCc3ccccc3)C(O)C(C)O2)Oc2ccc(cc2Cl)C1O` (stereo not shown) [Compound 59, 2-benzyloxyphenethyl], the MIC in experiment [2] was 0.5 µg/mL (≈ 0.277 µM); in [3], 1 µg/mL (≈ 0.555 µM); in experiment [7] it was at most 0.06 µg/mL.
With `CNC(CC(C)C)C(=O)NC1C(=O)NC(CC(N)=O)C(=O)NC2C(=O)NC3C(=O)NC(C(=O)NC(C(=O)O)c4cc(O)cc(O)c4-c4cc3ccc4O)C(OC3CC(C)(N)C(O)C(C)O3)c3ccc(c(Cl)c3)Oc3cc2cc(c3OC2OC(CO)C(O)C(O)C2OC2CC(C)(NCc3cccc(OCc4ccc5ccccc5n4)c3)C(O)C(C)O2)Oc2ccc(cc2Cl)C1O` (stereo not shown) [Compound 125, 3-[2-quinoylmethoxy]benzyl], the MIC was at most 0.06 µg/mL in [2], 12 µg/mL (≈ 6.52 µM) in [3] and 2 µg/mL (≈ 1.09 µM) with Entercoccus faecalis 276.
Taken in the same sequence, the figures for `CNC(CC(C)C)C(=O)NC1C(=O)NC(CC(N)=O)C(=O)NC2C(=O)NC3C(=O)NC(C(=O)NC(C(=O)O)c4cc(O)cc(O)c4-c4cc3ccc4O)C(OC3CC(C)(N)C(O)C(C)O3)c3ccc(c(Cl)c3)Oc3cc2cc(c3OC2OC(CO)C(O)C(O)C2OC2CC(C)(NCc3cccc(OC(=O)c4ccccc4)c3)C(O)C(C)O2)Oc2ccc(cc2Cl)C1O` (stereo not shown) [Compound 162, 3-benzoyloxybenzyl] were at most 0.06 µg/mL, 2 µg/mL (≈ 1.11 µM) and at most 0.06 µg/mL.
The corresponding values for `CNC(CC(C)C)C(=O)NC1C(=O)NC(CC(N)=O)C(=O)NC2C(=O)NC3C(=O)NC(C(=O)NC(C(=O)O)c4cc(O)cc(O)c4-c4cc3ccc4O)C(OC3CC(C)(N)C(O)C(C)O3)c3ccc(c(Cl)c3)Oc3cc2cc(c3OC2OC(CO)C(O)C(O)C2OC2CC(C)(NCc3ccc(Cc4ccccc4)c(OC)c3)C(O)C(C)O2)Oc2ccc(cc2Cl)C1O` (stereo not shown) [Compound 104, 4-benzyl-3-methoxybenzyl] are at most 0.06 µg/mL, 2 µg/mL (≈ 1.11 µM) and at most 0.06 µg/mL.

What is called MIC is the least concentration at which growth counts as inhibited. High values mean a need for much substance, low ones inhibition by little substance.
